Experimental data published in US20240083892A1 (BISICHEM CO., LTD., priority 2021, published 2024).

What was measured:
RIPK1 [1] = target: T1, RIPK1 (Homo sapiens, UniProt Q13546); test: Cell-based necroptosis assay for RIPK1 activity (cell viability by CCK-8); conditions: HT-29 cells; Z-VAD-FMK 20 μM, human TNFα 10 ng/ml, SM-164 100 nM; 24 h; read-out: Cell-base RIPK1 activity: Necroptosis
T1 construct: endogenous in cells; host or cells: HT-29 (KCLB 30038)
T1 sequence (Q13546 1-671): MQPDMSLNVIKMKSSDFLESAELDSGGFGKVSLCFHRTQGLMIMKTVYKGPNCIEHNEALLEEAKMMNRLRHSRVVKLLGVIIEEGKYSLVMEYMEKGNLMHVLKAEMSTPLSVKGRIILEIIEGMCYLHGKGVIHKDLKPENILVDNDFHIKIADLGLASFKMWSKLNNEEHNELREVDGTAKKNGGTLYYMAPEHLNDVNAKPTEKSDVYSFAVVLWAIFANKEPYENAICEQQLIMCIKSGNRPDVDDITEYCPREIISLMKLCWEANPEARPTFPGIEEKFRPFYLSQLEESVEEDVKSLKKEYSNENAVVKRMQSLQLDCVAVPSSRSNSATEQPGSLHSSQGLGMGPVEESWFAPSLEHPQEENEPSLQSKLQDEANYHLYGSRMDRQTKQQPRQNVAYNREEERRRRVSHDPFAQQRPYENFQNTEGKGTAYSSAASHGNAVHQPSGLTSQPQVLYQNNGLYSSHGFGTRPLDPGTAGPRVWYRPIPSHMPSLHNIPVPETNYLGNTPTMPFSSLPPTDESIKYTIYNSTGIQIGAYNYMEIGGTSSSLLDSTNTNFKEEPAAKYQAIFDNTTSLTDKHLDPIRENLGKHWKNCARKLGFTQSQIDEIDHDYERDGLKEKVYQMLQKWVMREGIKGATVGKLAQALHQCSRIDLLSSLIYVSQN
Procedure: (§1) Human colon carcinoma cell HT-29 (KCLB 30038), BV2 mouse microglial cell (cell was a kind gift from Dr. Nak-Yun Sung, Senior researcher at Korea Prime Pharmacy CO., LTD.) and human microglial cell HMC3 (ATCC® CRL-3304™). HT-29 cell was grown in Roswell Park Memorial Institute (RPMI) 1640, BV2 cell was grown in Dulbecco's Modified Eagle's Medium (DMEM) and HMC3 cell was grown in Minimum Essential Media Eagle (MEM) supplemented with 10% fetal bovine serum and 1% mixture of penicillin and streptomycin (Gibco). Cells were maintained at 37° C. in a humidified 5% CO2 atmosphere.
To measure the activity of RIPK1 inhibitor in necroptotic cells, HT-29 cells were treated by control DMSO, human TNFα (Peprotech, Rocky Hill, USA), SM-164 (Biovision, California, USA) and a pan-caspase inhibitor Z-VAD-FMK (Invivogen, San Diego, USA). Cells were pretreated with Z-VAD-FMK 20 μM. After 30 min, human TNFα 10 ng/ml, SM-164 100 nM and RIPK1 Inhibitor (0.0001, 0.001, 0.01, 0.02, 0.05, 0.1, 1, 10 uM) were treated for 24 h. Cell viability was measured by Cell Counting Kit 8 (CCK-8) (Dong-in, Seoul, Korea).

RIPK1 [2] = target: T1, RIPK1; test: Immunoblotting of TNFα induced phospho-RIPK1 (ser 166) levels; format: cell-based; conditions: HMC3 cells; Z-VAD-FMK, human TNFα 20 ng/ml, SM-164 100 nM; 7 h, serum free media; read-out: Cell-base RIPK1 activity: phspho-RIPK1 (Ser166)
Procedure: as §1
Biological activity of the compounds of RIPK1 inhibitor was determined by measuring their ability to inhibitor TNFα induced phospho-RIPK1 (ser 166) levels, phospho-RIPK3 levels, phospho-MLKL levels in HMC3 cells. Cells were pretreated with Z-VAD-FMK […]. After 30 min, human TNFα 20 ng/ml, SM-164 100 nM and RIPK1 inhibitor (0.1, 1, 10 nM) were treated for 7 h under serum free media. Cells were lysed with cold lysis buffer containing 25 mM HEPES pH 7.6, […] NaCl, 1% NP40, 1% sodium deoxycholate, 0.1% SDS, and protease inhibitor mixture (Bimake, Houston, USA) using sonicators. The cells were centrifuged at 15,000 rpm, 4° C. for 5 min. After protein concentration of the lysates (supernatants) was quantified using BCA assay (Thermo Fisher Scientific, Waltham, USA), lysates were mixed with LDS sample buffer and heating at […] for 10 min. (Invitrogen, California, USA). […] The membranes are placed in an image analyzer (Imagequant, LAS 500, GE Healthcare), connected to a computer which allows the image generation (software Image reader LAS 500).

IC50 (RIPK1 [2]) [nM] | Compound | IC50 (RIPK1 [1]) [nM]
< 10 | CN1C(=O)[C@@H](NC(=O)n2cc(Cc3cccc(F)c3)cn2)COc2ccc(OCC#Cc3cccnc3)cc21 [Example 25, (S)-4-(3-fluorobenzyl)-N-(5-methyl-4-oxo-7-((3-(pyridin-3-yl)prop-2-yn-1-yl)oxy)-2,3,4,5-tetrahydrobenzo[b][1,4]oxazepin-3-yl)-1H-pyrazole-1-carboxamide] | < 10
< 10 | CN1C(=O)[C@@H](NC(=O)n2cc(Cc3cccc(F)c3)cn2)COc2ccc(OCCN3CCC(C)(O)CC3)cc21 [Example 18, (S)-4-(3-fluorobenzyl)-N-(7-(2-(4-hydroxy-4-methylpiperidin-1-yl)ethoxy)-5-methyl-4-oxo-2,3,4,5-tetrahydrobenzo[b][1,4]oxazepin-3-yl)-1H-pyrazole-1-carboxamide] | < 10
< 10 | CN1C(=O)[C@@H](NC(=O)n2cc(Cc3cccc(F)c3)cn2)COc2ccc(OCC(=O)N3CCC(F)(F)CC3)cc21 [Example 38, (S)—N-(7-(2-(4,4-difluoropiperidin-1-yl)-2-oxoethoxy)-5-methyl-4-oxo-2,3,4,5-tetrahydrobenzo[b][1,4]oxazepin-3-yl)-4-(3-fluorobenzyl)-1H-pyrazole-1-carboxamide] | < 10
< 10 | CN1C(=O)[C@@H](NC(=O)n2cc(Cc3cccc(F)c3)cn2)COc2ccc(OCCCC3(O)CCCCC3)cc21 [Example 27, (S)-4-(3-fluorobenzyl)-N-(7-(3-(1-hydroxycyclohexyl)propoxy)-5-methyl-4-oxo-2,3,4,5-tetrahydrobenzo[b][1,4]oxazepin-3-yl)-1H-pyrazole-1-carboxamide] | < 10
< 10 | CN1C(=O)[C@@H](NC(=O)n2cc(Cc3cccc(F)c3)cn2)COc2ccc(OC3CCCCC3)cc21 [Example 30, (S)—N-(7-(cyclohexyloxy)-5-methyl-4-oxo-2,3,4,5-tetrahydrobenzo[b][1,4]oxazepin-3-yl)-4-(3-fluorobenzyl)-1H-pyrazole-1-carboxamide] | < 10
< 10 | CN1C(=O)[C@@H](NC(=O)n2cc(Cc3cccc(F)c3)cn2)COc2ccc(OCCOCCO)cc21 [Example 19, (S)-4-(3-fluorobenzyl)-N-(7-(2-(2-hydroxyethoxy)ethoxy)-5-methyl-4-oxo-2,3,4,5-tetrahydrobenzo[b][1,4]oxazepin-3-yl)-1H-pyrazole-1-carboxamide] | < 10
< 10 | CN1C(=O)[C@@H](NC(=O)n2cc(Cc3cccc(F)c3)cn2)COc2ccc(C(=O)N3CCC(C)(O)CC3)cc21 [Example 5, (S)-4-(3-fluorobenzyl)-N-(7-(4-hydroxy-4-methylpiperidine-1-carbonyl)-5-methyl-4-oxo-2,3,4,5-tetrahydrobenzo[b][1,4]oxazepin-3-yl)-1H-pyrazole-1-carboxamide] | < 10
< 10 | CN1C(=O)[C@@H](NC(=O)n2cc(Cc3cccc(F)c3)cn2)COc2ccc(OCc3nccn3C)cc21 [Example 63, (S)-4-(3-fluorobenzyl)-N-(5-methyl-7-((1-methyl-1H-imidazol-2-yl)methoxy)-4-oxo-2,3,4,5-tetrahydrobenzo[b][1,4]oxazepin-3-yl)-1H-pyrazole-1-carboxamide] | < 10
< 10 | CN1C(=O)[C@@H](NC(=O)n2cc(Cc3cccc(F)c3)cn2)COc2ccc(OCC(O)c3cccnc3)cc21 (stereo partly drawn) [Example 70, 4-(3-fluorobenzyl)-N-((3S)-7-(2-hydroxy-2-(pyridin-3-yl)ethoxy)-5-methyl-4-oxo-2,3,4,5-tetrahydrobenzo[b][1,4]oxazepin-3-yl)-1H-pyrazole-1-carboxamide] | < 10
10 to 50 | CN1C(=O)[C@@H](NC(=O)n2cc(Cc3cccc(F)c3)cn2)COc2ccc(C(=O)N3CCCCC3)cc21 [Example 1, (S)-4-(3-fluorobenzyl)-N-(5-methyl-4-oxo-7-(piperidine-1-carbonyl)-2,3,4,5-tetrahydrobenzo[b][1,4]oxazepin-3-yl)-1H-pyrazole-1-carboxamide] | 10 to 50
< 10 | CCN(CC(C)(C)O)C(=O)COc1ccc2c(c1)N(C)C(=O)[C@@H](NC(=O)n1cc(Cc3cccc(F)c3)cn1)CO2 [Example 53, (S)—N-(7-(2-(ethyl(2-hydroxy-2-methylpropyl)amino)-2-oxoethoxy)-5-methyl-4-oxo-2,3,4,5-tetrahydrobenzo[b][1,4]oxazepin-3-yl)-4-(3-fluorobenzyl)-1H-pyrazole-1-carboxamide] | < 10
< 10 | CN1C(=O)[C@@H](NC(=O)n2cc(Cc3cccc(F)c3)cn2)COc2ccc(OCc3ccc(F)cn3)cc21 [Example 58, (S)-4-(3-fluorobenzyl)-N-(7-((5-fluoropyridin-2-yl)methoxy)-5-methyl-4-oxo-2,3,4,5-tetrahydrobenzo[b][1,4]oxazepin-3-yl)-1H-pyrazole-1-carboxamide] | < 10
< 10 | COc1cc(COc2ccc3c(c2)N(C)C(=O)[C@@H](NC(=O)n2cc(Cc4cccc(F)c4)cn2)CO3)ccn1 [Example 61, (S)-4-(3-fluorobenzyl)-N-(7-((2-methoxypyridin-4-yl)methoxy)-5-methyl-4-oxo-2,3,4,5-tetrahydrobenzo[b][1,4]oxazepin-3-yl)-1H-pyrazole-1-carboxamide] | < 10
10 to 50 | CN1C(=O)[C@@H](NC(=O)n2cc(Cc3cccc(F)c3)cn2)COc2ccc(C(=O)N3CCC(F)(F)CC3)cc21 [Example 3] | 10 to 50
< 10 | CN1C(=O)[C@@H](NC(=O)n2cc(Cc3cccc(F)c3)cn2)COc2ccc(OCCCC3CCCCC3)cc21 [Example 16, (S)—N-(7-(3-cyclohexylpropoxy)-5-methyl-4-oxo-2,3,4,5-tetrahydrobenzo[b][1,4]oxazepin-3-yl)-4-(3-fluorobenzyl)-1H-pyrazole-1-carboxamide] | < 10
< 10 | CN1C(=O)[C@@H](NC(=O)n2cc(Cc3cccc(F)c3)cn2)COc2ccc(OCC#CC3(O)CCC3)cc21 [Example 24, (S)-4-(3-fluorobenzyl)-N-(7-((3-(1-hydroxycyclobutyl)prop-2-yn-1-yl)oxy)-5-methyl-4-oxo-2,3,4,5-tetrahydrobenzo[b][1,4]oxazepin-3-yl)-1H-pyrazole-1-carboxamide] | < 10
< 10 | CN1C(=O)[C@@H](NC(=O)n2cc(Cc3cccc(F)c3)cn2)COc2ccc(OCC(=O)N3CCC(C(C)(C)O)CC3)cc21 [Example 43, (S)-4-(3-fluorobenzyl)-N-(7-(2-(4-(2-hydroxypropan-2-yl)piperidin-1-yl)-2-oxoethoxy)-5-methyl-4-oxo-2,3,4,5-tetrahydrobenzo[b][1,4]oxazepin-3-yl)-1H-pyrazole-1-carboxamide] | < 10
< 10 | CN1C(=O)[C@@H](NC(=O)n2cc(Cc3cccc(F)c3)cn2)COc2ccc(OCC(=O)N3CC[C@H](O)C3)cc21 [Example 46, 4-(3-fluorobenzyl)-N—((S)-7-(2-((S)-3-hydroxypyrrolidin-1-yl)-2-oxoethoxy)-5-methyl-4-oxo-2,3,4,5-tetrahydrobenzo[b][1,4]oxazepin-3-yl)-1H-pyrazole-1-carboxamide] | 10 to 50
